Test results from PubChem BioAssay AID1259411 (Chemical Carcinogenesis Research Information System (CCRIS), 2018).
Activity calls are given as the source filed them. No rule for the calls is given here.

Test system: rodent carcinogenicity bioassays, tumor incidence
Test: CCRIS carcinogenicity studies
Outline: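 Archive of carcinogenicity, mutagenicity, tumor promotion and tumor inhibition results drawn from journals, NCI reports and other sources, expert-reviewed; covers 1985-2011 and is no longer updated.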

SMILES: CN(C)c1ccc(N=Nc2ccccc2)cc1
- carcinogen call (Species: DOG, Route: ORAL, Tumor Site: Type of Lesion: URINARY BLADDER): active; positive
- carcinogen call (Species: MOUSE, Route: SUBCUTANEOUS, Tumor Site: Type of Lesion: LIVER, INJECTION SITE): active; positive
- carcinogen call (Species: MOUSE, Strain/Sex: B6C3F1/FEMALE, Route: INTRAPERITONEAL, Dose: 0, 0.3 UMOL/G IN TRIOCTANOIN ONCE ON DAY 1 FOLLOWED BY 0.4 UMOL/G ONCE ON DAY 8, 15 AND 22 (STUDY DURATION: 10 MO)): inactive; negative
- carcinogen call (Species: MOUSE, Strain/Sex: B6C3F1/MALE, Route: INTRAPERITONEAL, Dose: 0, 0.017, 0.05, 0.15, 0.45 UMOL/G ONCE IN TRIOCTANOIN (STUDY DURATION: 10 MO), Dose: 0, 0.017, 0.05, 0.15, 0.45 UMOL/G ONCE IN TRIOCTANOIN (STUDY DURATION: 10 MO), Tumor Site: Type of Lesion: LIVER: HEPATOMA): active; positive
- carcinogen call (Species: MOUSE, Strain/Sex: B6C3F1/MALE, Route: INTRAPERITONEAL, Dose: 0, 0.3 UMOL/G IN TRIOCTANOIN ONCE ON DAY 1 FOLLOWED BY 0.4 UMOL/G ONCE ON DAY 8, 15 AND 22 (STUDY DURATION: 10 MO), Tumor Site: Type of Lesion: LIVER: HEPATOMA): active; positive
- carcinogen call (Species: RAT, Route: ORAL, Tumor Site: Type of Lesion: LIVER): active; positive
- carcinogen call (Species: RAT, Strain/Sex: F344/MALE, Route: INTRAPERITONEAL, Dose: 0, 0.3 UMOL/G IN TRIOCTANOIN ONCE ON DAY 1 FOLLOWED BY 0.4 UMOL/G ONCE ON DAY 8, 15 AND 22 (STUDY DURATION: 10 MO)): inactive; negative

SMILES: OCl
- carcinogen call (Species: RAT, Strain/Sex: SPRAGUE-DAWLEY/FEMALE, Route: ORAL, Dose: 0, 100, 500, 750 MG/L IN DRINKING WATER FOR 104 WK (STUDY DURATION: LIFETIME), Dose: 0, 100, 500, 750 MG/L IN DRINKING WATER FOR 104 WK (STUDY DURATION: LIFETIME), Tumor Site: Type of Lesion: LYMPHATIC SYSTEM: LYMPHOMA OR LEUKEMIA): active; positive
- carcinogen call (Species: RAT, Strain/Sex: SPRAGUE-DAWLEY/MALE, Route: ORAL, Dose: 0, 100, 500, 750 MG/L IN DRINKING WATER FOR 104 WK (STUDY DURATION: LIFETIME), Dose: 0, 100, 500, 750 MG/L IN DRINKING WATER FOR 104 WK (STUDY DURATION: LIFETIME)): inactive; negative

SMILES: Cc1ccc([N+](=O)[O-])cc1
- carcinogen call (Species: MOUSE, Strain/Sex: B6C3F1/FEMALE, Route: ORAL, Dose: 0, 1250, 2500, 5000 PPM FOR 105-106 WK (STUDY DURATION: 105-106 WK), Dose: 0, 1250, 2500, 5000 PPM FOR 105-106 WK (STUDY DURATION: 105-106 WK)): inactive; negative
- carcinogen call (Species: MOUSE, Strain/Sex: B6C3F1/MALE, Route: ORAL, Dose: 0, 1250, 2500, 5000 PPM FOR 105-106 WK (STUDY DURATION: 105-106 WK), Dose: 0, 1250, 2500, 5000 PPM FOR 105-106 WK (STUDY DURATION: 105-106 WK), Tumor Site: Type of Lesion: LUNG: ALVEOLAR/BRONCHIOLAR ADENOMA OR CARCINOMA): equivocal
- carcinogen call (Species: RAT, Strain/Sex: F344/FEMALE, Route: ORAL, Dose: 0, 1250, 2500, 5000 PPM FOR 105-106 WK (STUDY DURATION: 105-106 WK), Dose: 0, 1250, 2500, 5000 PPM FOR 105-106 WK (STUDY DURATION: 105-106 WK), Tumor Site: Type of Lesion: CLITORAL GLAND: ADENOMA OR CARCINOMA): active; positive
- carcinogen call (Species: RAT, Strain/Sex: F344/MALE, Route: ORAL, Dose: 0, 1250, 2500, 5000 PPM FOR 105-106 WK (STUDY DURATION: 105-106 WK), Dose: 0, 1250, 2500, 5000 PPM FOR 105-106 WK (STUDY DURATION: 105-106 WK), Tumor Site: Type of Lesion: SKIN (SUBCUTANEOUS):FIBROMA, FIBROMA OR FIBROSARCOMA): equivocal

SMILES: Nc1ccc(Cl)c(N)c1
- carcinogen call (Species: MOUSE, Strain/Sex: B6C3F1/FEMALE, Route: ORAL, Dose: 0, 0.7, 1.4% OF DIET, TWA, Dose: 0, 0.7, 1.4% OF DIET, TWA, Tumor Site: Type of Lesion: LIVER: HEPATOCELLULAR ADENOMA OR HEPATOCELLULAR CARCINOMA): active; positive
- carcinogen call (Species: MOUSE, Strain/Sex: B6C3F1/MALE, Route: ORAL, Dose: 0, 0.7, 1.4% OF DIET, TWA, Dose: 0, 0.7, 1.4% OF DIET, TWA): inactive; negative
- carcinogen call (Species: RAT, Strain/Sex: F344/FEMALE, Route: ORAL, Dose: 0, 0.2, 0.4% OF DIET, Dose: 0, 0.2, 0.4% OF DIET): inactive; negative
- carcinogen call (Species: RAT, Strain/Sex: F344/MALE, Route: ORAL, Dose: 0, 0.2, 0.4% OF DIET, Dose: 0, 0.2, 0.4% OF DIET, Tumor Site: Type of Lesion: ADRENAL GLAND: PHEOCHROMOCYTOMA): active; positive

SMILES: CC1CN(N=O)C(=O)NC1=O (stereo not drawn)
- carcinogen call (Species: RAT, Strain/Sex: MRC-WISTAR/FEMALE, Route: ORAL, Dose: 0, 10 G TOTAL DOSE IN CITRATE BUFFER IN DRINKING WATER 5D/WK FOR 12 MO (STUDY DURATION: 2 YR)): inactive; negative
- carcinogen call (Species: RAT, Strain/Sex: MRC-WISTAR/MALE, Route: ORAL, Dose: 0, 1 G TOTAL DOSE IN CITRATE BUFFER IN DRINKING WATER 5D/WK FOR 12 MO (STUDY DURATION: 2 YR)): inactive; negative

SMILES: CN(C)C(=O)Nc1ccc(Cl)cc1
- carcinogen call (Species: MOUSE, Strain/Sex: B6C3F1/FEMALE, Route: ORAL, Dose: 0, 5000, 10000 PPM IN DIET FOR 103 WK (STUDY DURATION: 107 WK), Dose: 0, 5000, 10000 PPM IN DIET FOR 103 WK (STUDY DURATION: 107 WK)): inactive; negative
- carcinogen call (Species: MOUSE, Strain/Sex: B6C3F1/MALE, Route: ORAL, Dose: 0, 5000, 10000 PPM IN DIET FOR 103 WK (STUDY DURATION: 107 WK), Dose: 0, 5000, 10000 PPM IN DIET FOR 103 WK (STUDY DURATION: 107 WK)): inactive; negative
- carcinogen call (Species: RAT, Strain/Sex: F344/FEMALE, Route: ORAL, Dose: 0, 750, 1500 PPM IN DIET FOR 103 WK (STUDY DURATION: 106 WK), Dose: 0, 750, 1500 PPM IN DIET FOR 103 WK (STUDY DURATION: 106 WK)): inactive; negative
- carcinogen call (Species: RAT, Strain/Sex: F344/MALE, Route: ORAL, Dose: 0, 750, 1500 PPM IN DIET FOR 103 WK (STUDY DURATION: 106 WK), Dose: 0, 750, 1500 PPM IN DIET FOR 103 WK (STUDY DURATION: 106 WK), Tumor Site: Type of Lesion: LIVER: NEOPLASTIC NODULE, NEOPLASTIC NODULE OR CARCINOMA, KIDNEY: TUBULAR CELL ADENOMA, TUBULAR CELL ADENOCARCINOMA): active; positive
